Laboratory results: article PMC10879502, “Linking ATP and allosteric sites to achieve superadditive binding with bivalent EGFR kinase inhibitors” (Communications Chemistry, 2024)

Key:
Test in all cases: KINOMEscan
Format in all cases: binding
Details in all cases: 1 μM
[1] = biological target: T1, ABL1(H396P)-nonphosphorylated (Homo sapiens, UniProt P00519, H396P)
T1 construct: purchased Eurofins DiscoverX Corporation

[2] = biological target: T2, ABL1(T315I)-phosphorylated (Homo sapiens, UniProt P00519, T315I)
T2 construct: purchased Eurofins DiscoverX Corporation

ADCK3 = ADCK3 (Homo sapiens, UniProt Q8NI60)
CLK4 = CLK4 (Homo sapiens, UniProt Q9HAZ1)
CLK4, sequence (Q9HAZ1 whole entry): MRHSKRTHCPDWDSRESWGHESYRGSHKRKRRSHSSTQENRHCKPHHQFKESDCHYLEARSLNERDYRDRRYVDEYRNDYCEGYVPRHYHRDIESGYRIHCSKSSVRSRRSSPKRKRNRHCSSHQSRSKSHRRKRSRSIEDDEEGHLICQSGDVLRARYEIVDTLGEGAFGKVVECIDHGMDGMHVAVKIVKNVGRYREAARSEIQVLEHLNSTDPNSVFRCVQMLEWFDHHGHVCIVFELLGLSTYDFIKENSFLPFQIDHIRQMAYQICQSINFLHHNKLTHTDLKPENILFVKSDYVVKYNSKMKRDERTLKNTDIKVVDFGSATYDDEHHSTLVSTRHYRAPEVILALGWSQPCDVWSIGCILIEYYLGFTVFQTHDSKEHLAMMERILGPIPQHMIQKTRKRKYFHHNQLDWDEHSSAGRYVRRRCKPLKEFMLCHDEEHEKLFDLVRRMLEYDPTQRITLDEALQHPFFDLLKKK

CSNK1D = biological target: T3, CSNK1D (Homo sapiens, UniProt P48730)
T3 construct: purchased Eurofins DiscoverX Corporation
T3 sequence (P48730 whole entry): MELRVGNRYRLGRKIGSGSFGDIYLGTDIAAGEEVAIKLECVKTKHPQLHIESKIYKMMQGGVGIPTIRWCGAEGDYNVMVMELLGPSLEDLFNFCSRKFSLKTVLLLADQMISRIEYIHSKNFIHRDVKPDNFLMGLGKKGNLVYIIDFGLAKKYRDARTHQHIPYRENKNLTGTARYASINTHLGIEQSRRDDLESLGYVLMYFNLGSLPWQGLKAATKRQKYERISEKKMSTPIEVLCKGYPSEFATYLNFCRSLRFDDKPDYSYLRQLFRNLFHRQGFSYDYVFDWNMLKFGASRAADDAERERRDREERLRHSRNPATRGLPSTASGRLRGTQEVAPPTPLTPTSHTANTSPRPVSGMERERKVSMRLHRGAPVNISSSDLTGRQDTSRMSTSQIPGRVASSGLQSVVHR

CSNK2A2 = biological target: T4, CSNK2A2 (Homo sapiens, UniProt P19784)
T4 construct: purchased Eurofins DiscoverX Corporation

DAPK3 = biological target: T5, DAPK3 (Homo sapiens, UniProt O43293)
T5 construct: purchased Eurofins DiscoverX Corporation
T5 sequence (O43293 whole entry): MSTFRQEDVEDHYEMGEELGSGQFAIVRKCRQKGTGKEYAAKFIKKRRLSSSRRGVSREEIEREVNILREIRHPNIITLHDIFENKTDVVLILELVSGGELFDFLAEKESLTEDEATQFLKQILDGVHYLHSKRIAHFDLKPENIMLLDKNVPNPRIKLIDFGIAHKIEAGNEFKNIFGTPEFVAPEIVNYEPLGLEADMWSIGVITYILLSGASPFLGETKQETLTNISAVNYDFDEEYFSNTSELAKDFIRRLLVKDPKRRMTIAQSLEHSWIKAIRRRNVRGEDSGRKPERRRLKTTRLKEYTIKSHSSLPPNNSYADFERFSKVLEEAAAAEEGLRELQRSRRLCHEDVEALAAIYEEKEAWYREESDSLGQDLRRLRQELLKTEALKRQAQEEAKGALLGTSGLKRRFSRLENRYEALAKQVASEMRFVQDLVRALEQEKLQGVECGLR

DCAMKL1 = biological target: T6, DCAMKL1 (Homo sapiens, UniProt O15075)
T6 construct: purchased Eurofins DiscoverX Corporation

EGFR(S752-I759del) = EGFR(S752-I759del) (Homo sapiens, UniProt P00533, DEL752-759)
EGFR(T790M) = EGFR(T790M) (Homo sapiens, UniProt P00533, T790M)
EPHA1 = EPHA1 (Homo sapiens, UniProt P21709)
EPHA4 = EPHA4 (Homo sapiens, UniProt P54764)
EPHA5 = EPHA5 (Homo sapiens, UniProt P54756)
ERBB3 = ERBB3 (Homo sapiens, UniProt P21860)
FAK = FAK (Homo sapiens, UniProt Q05397)
FGFR2 = FGFR2 (Homo sapiens, UniProt P21802)
FGFR4 = FGFR4 (Homo sapiens, UniProt P22455)
FLT3(K663Q) = biological target: T7, FLT3(K663Q) (Homo sapiens, UniProt P36888, K663Q)
T7 construct: purchased Eurofins DiscoverX Corporation

FLT3-autoinhibited = biological target: T8, FLT3-autoinhibited (Homo sapiens, UniProt P36888)
T8 construct: purchased Eurofins DiscoverX Corporation

GRK4 = biological target: T9, GRK4 (Homo sapiens, UniProt P32298)
T9 construct: purchased Eurofins DiscoverX Corporation

MAP4K5 = biological target: T10, MAP4K5 (Homo sapiens, UniProt Q9Y4K4)
T10 construct: purchased Eurofins DiscoverX Corporation

MAST1 = biological target: T11, MAST1 (Homo sapiens, UniProt Q9Y2H9)
T11 construct: purchased Eurofins DiscoverX Corporation

MEK4 = biological target: T12, MEK4 (Homo sapiens, UniProt P45985)
T12 construct: purchased Eurofins DiscoverX Corporation

MLK2 = biological target: T13, MLK2 (Homo sapiens, UniProt Q02779)
T13 construct: purchased Eurofins DiscoverX Corporation

MLK3 = biological target: T14, MLK3 (Homo sapiens, UniProt Q16584)
T14 construct: purchased Eurofins DiscoverX Corporation

NEK5 = biological target: T15, NEK5 (Homo sapiens, UniProt Q6P3R8)
T15 construct: purchased Eurofins DiscoverX Corporation

OSR1 = OSR1 (Homo sapiens, UniProt O95747)
PAK2 = PAK2 (Homo sapiens, UniProt Q13177)
PAK4 = PAK4 (Homo sapiens, UniProt O96013)
PAK4, sequence (O96013 whole entry): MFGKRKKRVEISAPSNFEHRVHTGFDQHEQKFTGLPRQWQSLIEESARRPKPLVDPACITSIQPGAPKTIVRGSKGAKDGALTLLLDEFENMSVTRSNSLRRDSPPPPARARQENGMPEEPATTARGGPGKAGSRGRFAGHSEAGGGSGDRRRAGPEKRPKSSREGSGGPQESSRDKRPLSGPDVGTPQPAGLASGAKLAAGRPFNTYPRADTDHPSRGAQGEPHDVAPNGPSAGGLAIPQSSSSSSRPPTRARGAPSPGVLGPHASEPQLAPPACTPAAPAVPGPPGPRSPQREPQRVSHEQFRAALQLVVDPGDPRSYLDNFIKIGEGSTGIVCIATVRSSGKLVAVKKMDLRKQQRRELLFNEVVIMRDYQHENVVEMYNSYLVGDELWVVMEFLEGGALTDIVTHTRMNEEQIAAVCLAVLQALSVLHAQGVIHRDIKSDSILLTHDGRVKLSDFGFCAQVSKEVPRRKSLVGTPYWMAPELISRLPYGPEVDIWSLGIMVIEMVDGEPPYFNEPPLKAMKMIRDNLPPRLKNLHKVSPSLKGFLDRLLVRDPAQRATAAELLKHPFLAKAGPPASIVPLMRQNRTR

PDPK1 = PDPK1 (Homo sapiens, UniProt O15530)
PDPK1, sequence (O15530 whole entry): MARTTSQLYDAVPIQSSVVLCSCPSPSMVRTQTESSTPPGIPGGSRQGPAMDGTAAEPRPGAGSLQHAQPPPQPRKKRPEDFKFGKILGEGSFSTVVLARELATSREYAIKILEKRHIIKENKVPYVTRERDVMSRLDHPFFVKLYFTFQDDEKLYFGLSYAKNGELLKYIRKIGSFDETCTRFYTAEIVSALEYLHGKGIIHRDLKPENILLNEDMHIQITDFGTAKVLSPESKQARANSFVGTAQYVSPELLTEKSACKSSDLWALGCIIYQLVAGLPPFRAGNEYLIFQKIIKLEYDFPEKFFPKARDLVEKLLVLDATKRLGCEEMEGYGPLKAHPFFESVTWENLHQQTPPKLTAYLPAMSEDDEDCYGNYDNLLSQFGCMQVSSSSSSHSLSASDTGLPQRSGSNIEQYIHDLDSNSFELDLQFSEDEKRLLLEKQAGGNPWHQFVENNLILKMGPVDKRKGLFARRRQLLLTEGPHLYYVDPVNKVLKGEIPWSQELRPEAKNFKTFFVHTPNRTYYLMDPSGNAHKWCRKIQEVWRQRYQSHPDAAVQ

PHKG2 = PHKG2 (Homo sapiens, UniProt P15735)
PIK3CA(C420R) = PIK3CA(C420R) (Homo sapiens, UniProt P42336, C420R)
PIK3CA(C420R), sequence (P42336 whole entry C420R): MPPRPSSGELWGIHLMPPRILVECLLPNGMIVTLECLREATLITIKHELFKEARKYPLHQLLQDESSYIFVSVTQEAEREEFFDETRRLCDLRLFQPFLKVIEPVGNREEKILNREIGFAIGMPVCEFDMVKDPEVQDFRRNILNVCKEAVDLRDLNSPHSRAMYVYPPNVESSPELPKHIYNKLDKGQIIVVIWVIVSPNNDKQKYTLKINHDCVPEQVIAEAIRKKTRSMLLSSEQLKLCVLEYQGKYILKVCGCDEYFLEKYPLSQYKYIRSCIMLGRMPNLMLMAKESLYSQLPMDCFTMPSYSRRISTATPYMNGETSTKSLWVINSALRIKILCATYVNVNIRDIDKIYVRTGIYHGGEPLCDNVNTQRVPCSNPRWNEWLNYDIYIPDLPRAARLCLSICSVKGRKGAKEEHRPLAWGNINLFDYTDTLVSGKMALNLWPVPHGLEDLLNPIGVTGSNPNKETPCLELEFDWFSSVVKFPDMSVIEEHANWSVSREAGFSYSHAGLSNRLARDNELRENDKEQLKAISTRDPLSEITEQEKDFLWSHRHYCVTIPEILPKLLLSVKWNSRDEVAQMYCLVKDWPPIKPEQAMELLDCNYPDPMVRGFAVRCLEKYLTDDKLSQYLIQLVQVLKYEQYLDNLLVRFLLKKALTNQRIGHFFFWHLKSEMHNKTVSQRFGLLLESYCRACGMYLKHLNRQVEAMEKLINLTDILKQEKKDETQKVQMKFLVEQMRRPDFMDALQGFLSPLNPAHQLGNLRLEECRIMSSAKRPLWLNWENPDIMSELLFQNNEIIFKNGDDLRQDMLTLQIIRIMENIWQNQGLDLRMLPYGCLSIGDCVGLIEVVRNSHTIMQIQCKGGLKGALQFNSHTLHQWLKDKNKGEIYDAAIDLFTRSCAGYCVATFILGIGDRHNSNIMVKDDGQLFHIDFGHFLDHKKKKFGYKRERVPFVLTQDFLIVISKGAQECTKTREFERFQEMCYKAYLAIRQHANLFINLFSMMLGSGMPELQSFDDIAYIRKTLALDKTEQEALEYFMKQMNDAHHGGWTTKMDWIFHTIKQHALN

PIK4CB = PIK4CB (Homo sapiens, UniProt Q9UBF8)
PLK3 = PLK3 (Homo sapiens, UniProt Q9H4B4)
PRKCQ = PRKCQ (Homo sapiens, UniProt Q04759)
RIOK3 = RIOK3 (Homo sapiens, UniProt O14730)
[3] = biological target: RSK4(Kin.Dom.2-C-terminal) (Homo sapiens, UniProt Q9UK32)
RSK4(Kin.Dom.2-C-terminal), sequence (Q9UK32 426-683 limits assumed): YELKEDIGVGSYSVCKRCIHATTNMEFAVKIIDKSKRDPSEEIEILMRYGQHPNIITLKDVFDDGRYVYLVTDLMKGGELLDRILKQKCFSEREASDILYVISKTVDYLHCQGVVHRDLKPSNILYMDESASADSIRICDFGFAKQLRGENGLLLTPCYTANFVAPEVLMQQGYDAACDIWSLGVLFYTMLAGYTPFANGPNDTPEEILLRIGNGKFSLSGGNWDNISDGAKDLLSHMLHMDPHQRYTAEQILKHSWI

SLK = SLK (Homo sapiens, UniProt Q9H2G2)
STK16 = STK16 (Homo sapiens, UniProt O75716)
STK35 = STK35 (Homo sapiens, UniProt Q8TDR2)
STK35, sequence (Q8TDR2 whole entry): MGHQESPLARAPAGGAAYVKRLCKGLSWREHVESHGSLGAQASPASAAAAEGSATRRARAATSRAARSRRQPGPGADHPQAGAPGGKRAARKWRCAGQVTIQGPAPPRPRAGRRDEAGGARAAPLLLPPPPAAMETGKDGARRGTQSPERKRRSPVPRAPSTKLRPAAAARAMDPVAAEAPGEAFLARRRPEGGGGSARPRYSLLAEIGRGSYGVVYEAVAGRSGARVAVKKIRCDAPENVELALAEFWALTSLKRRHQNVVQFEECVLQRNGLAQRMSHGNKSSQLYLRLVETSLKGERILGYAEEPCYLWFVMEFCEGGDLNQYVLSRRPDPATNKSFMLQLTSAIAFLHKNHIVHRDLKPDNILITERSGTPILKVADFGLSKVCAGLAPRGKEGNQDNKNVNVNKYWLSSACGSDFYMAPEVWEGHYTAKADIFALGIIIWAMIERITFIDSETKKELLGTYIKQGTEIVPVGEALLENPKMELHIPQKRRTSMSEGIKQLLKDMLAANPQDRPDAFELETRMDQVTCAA

VRK2 = VRK2 (Homo sapiens, UniProt Q86Y07)
VRK2, sequence (Q86Y07 whole entry): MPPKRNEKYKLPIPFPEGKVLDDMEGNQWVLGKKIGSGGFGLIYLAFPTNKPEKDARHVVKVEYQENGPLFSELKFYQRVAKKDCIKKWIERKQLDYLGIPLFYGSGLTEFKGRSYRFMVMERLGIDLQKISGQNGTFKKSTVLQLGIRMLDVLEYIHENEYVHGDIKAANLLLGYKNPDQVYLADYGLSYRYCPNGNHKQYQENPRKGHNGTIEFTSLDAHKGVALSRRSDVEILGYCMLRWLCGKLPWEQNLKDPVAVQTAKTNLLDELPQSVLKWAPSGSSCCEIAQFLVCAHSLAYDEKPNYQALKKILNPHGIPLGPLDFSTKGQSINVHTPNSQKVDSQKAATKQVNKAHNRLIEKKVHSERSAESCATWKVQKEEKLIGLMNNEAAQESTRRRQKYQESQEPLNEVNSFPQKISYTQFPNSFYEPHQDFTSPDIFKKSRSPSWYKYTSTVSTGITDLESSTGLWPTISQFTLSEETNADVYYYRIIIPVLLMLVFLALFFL

WNK1 = WNK1 (Homo sapiens, UniProt Q9H4A3)
WNK2 = WNK2 (Homo sapiens, UniProt Q9Y3S1)

C=CC(=O)Nc1ccc(OC)c(Nc2cc(-c3[nH]c(CC)nc3-c3cccc(NC(=O)c4cccc5c4NC(=O)c4ccccc4N5)c3)ccn2)c1 [Compound 4]
POC [1]: 97% of control
POC [2]: 100% of control
POC (ADCK3): 100% of control
POC (CLK4): 100% of control
POC (CSNK1D): 87% of control
POC (CSNK2A2): 58% of control
POC (DAPK3): 62% of control
POC (DCAMKL1): 100% of control
POC (EGFR(S752-I759del)): 6% of control
POC (EGFR(T790M)): 12% of control
POC (EPHA1): 100% of control
POC (EPHA4): 95% of control
POC (EPHA5): 100% of control
POC (ERBB3): 84% of control
POC (FAK): 99% of control
POC (FGFR2): 100% of control
POC (FGFR4): 100% of control
POC (FLT3(K663Q)): 87% of control
POC (FLT3-autoinhibited): 100% of control
POC (GRK4): 100% of control
POC (MAP4K5): 2.5% of control
POC (MAST1): 100% of control
POC (MEK4): 100% of control
POC (MLK2): 97% of control
POC (MLK3): 97% of control
POC (NEK5): 100% of control
POC (OSR1): 89% of control
POC (PAK2): 100% of control
POC (PAK4): 89% of control
POC (PDPK1): 84% of control
POC (PHKG2): 73% of control
POC (PIK3CA(C420R)): 66% of control
POC (PIK4CB): 93% of control
POC (PLK3): 87% of control
POC (PRKCQ): 18% of control
POC (RIOK3): 100% of control
POC [3]: 80% of control
POC (SLK): 100% of control
POC (STK16): 100% of control
POC (STK35): 69% of control
POC (VRK2): 100% of control
POC (WNK1): 100% of control
POC (WNK2): 62% of control
